Source: ChEMBL document CHEMBL1148457, “Comparative molecular active site analysis (CoMASA). 1. An approach to rapid evaluation of 3D QSAR” (J Med Chem, 2004)

These compounds were tested against T1, Corticosteroid-binding globulin (Homo sapiens, UniProt P08185) (assay: Binding affinity to human CBG receptor (corticosteroid-binding globulins)).
T1 sequence (P08185 whole entry): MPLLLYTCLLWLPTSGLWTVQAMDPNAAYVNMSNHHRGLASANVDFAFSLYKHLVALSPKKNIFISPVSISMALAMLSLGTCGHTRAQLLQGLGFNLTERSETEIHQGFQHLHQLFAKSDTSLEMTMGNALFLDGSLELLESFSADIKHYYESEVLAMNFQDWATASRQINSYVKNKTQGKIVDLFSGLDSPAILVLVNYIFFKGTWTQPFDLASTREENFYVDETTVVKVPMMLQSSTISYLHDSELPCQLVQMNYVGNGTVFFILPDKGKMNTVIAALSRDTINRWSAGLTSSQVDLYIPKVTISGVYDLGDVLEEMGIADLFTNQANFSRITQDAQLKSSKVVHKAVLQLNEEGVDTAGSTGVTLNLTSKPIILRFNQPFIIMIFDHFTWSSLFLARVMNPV

| Structure (SMILES) | Ki |
| --- | --- |
| CC(=O)[C@H]1CC[C@H]2[C@@H]3CCC4=CC(=O)CC[C@]4(C)[C@H]3C(=O)C[C@]12C | 166 nM |
| CC(=O)OCC(=O)[C@@]1(O)CC[C@H]2[C@@H]3CCC4=CC(=O)CC[C@]4(C)[C@H]3[C@@H](O)C[C@@]21C [HYDROCORTISONE ACETATE] | 28.2 nM |
| C[C@]12CC[C@@H]3c4ccc(O)cc4CC[C@H]3[C@@H]1CC[C@@H]2O [ESTRADIOL] | 10000 nM |
| C[C@]12C=CC(=O)C=C1CCC1[C@@H]2[C@@H](O)C[C@@]2(C)[C@H]1CC[C@]2(O)C(=O)CO (single isomer, unassigned) [PREDNISOLONE] | 30.9 nM |
| CC1C[C@@]2(C)C(=CC1=O)CC[C@@H]1[C@@H]2C(=O)C[C@@]2(C)[C@H]1CC[C@]2(O)C(=O)CO (stereo partly specified) | 20.4 nM |
| C[C@]12CC[C@H](O)C[C@@H]1CC[C@@H]1[C@@H]2CC[C@]2(C)[C@@H](O)CC[C@@H]12 [ANDROSTANEDIOL] | 10000 nM |
| CC(=O)[C@H]1CC[C@H]2[C@@H]3CC=C4C[C@@H](O)CC[C@]4(C)[C@H]3CC[C@]12C [PREGNENOLONE] | 5890 nM |
| C[C@]12CCC(=O)C=C1CC[C@@H]1[C@@H]2[C@@H](O)C[C@]2(C=O)[C@@H](C(=O)CO)CC[C@@H]12 [ALDOSTERONE] | 525 nM |
| C[C@]12CC[C@H](O)CC1=CC[C@@H]1[C@@H]2CC[C@]2(C)C(=O)CC[C@@H]12 [PRASTERONE] | 10000 nM |
| C[C@]12CCC(=O)C=C1CC[C@@H]1[C@@H]2CC[C@]2(C)C(=O)CC[C@@H]12 [ANDROSTENEDIONE] | 1740 nM |
| C[C@]12CCC(=O)C=C1CC[C@@H]1[C@@H]2CC[C@@]2(C)[C@H]1CC[C@]2(O)C(=O)CO [CORTODOXONE] | 13.2 nM |
| CC(=O)[C@@]1(O)[C@H](O)C[C@H]2[C@@H]3CCC4=CC(=O)CC[C@]4(C)[C@H]3CC[C@@]21C | 562 nM |
| CC(=O)[C@H]1CC[C@H]2[C@@H]3CCC4=CC(=O)CC[C@@H]4[C@H]3CC[C@]12C | 151 nM |
| C[C@]12CC[C@@H]3c4ccc(O)cc4CC[C@H]3[C@@H]1C[C@@H](O)[C@@H]2O [ESTRIOL] | 10000 nM |
| C[C@]12C[C@H](O)[C@H]3[C@@H](CCC4=CC(=O)CC[C@@]43C)[C@@H]1CC[C@@H]2C(=O)CO (stereo in doubt; form 1) [CORTICOSTERONE] | 63.1 nM |
| CC(=O)[C@@]1(O)CC[C@H]2[C@@H]3CC[C@@H]4C[C@H](O)CC[C@]4(C)[C@H]3CC[C@@]21C [HYDROXYPREGNENOLONE] | 10000 nM |
| C[C@]12CC[C@@H]3c4ccc(O)cc4CC[C@H]3[C@@H]1CCC2=O [ESTRONE] | 10000 nM |
| C[C@]12CC[C@H]3[C@@H](CCC4=CC(=O)CC[C@@]43C)[C@@H]1CC[C@@H]2C(=O)CO [DESOXYCORTICOSTERONE] | 22.4 nM |
| C[C@]12CCC(=O)C=C1CCC1[C@@H]2C(=O)C[C@@]2(C)[C@H]1CC[C@]2(O)C(=O)CO (single isomer, unassigned) [CORTISONE] | 129 nM |
| CC(=O)[C@H]1CC[C@H]2[C@@H]3CCC4=CC(=O)CC[C@]4(C)[C@H]3CC[C@]12C [PROGESTERONE] | 41.7 nM |
| CC(=O)C1CCC2C3C[C@H](C)C4=CC(=O)CCC4(C)C3CCC12C (stereo partly specified) | 75.9 nM |
| C[C@]12CC[C@H]3[C@@H](CCC4=CC(=O)CC[C@@H]43)[C@@H]1CC[C@@H]2O [NANDROLONE] | 724 nM |
| C[C@]12C[C@H](O)[C@H]3[C@@H](CCC4=CC(=O)CC[C@@]43C)[C@@H]1CC[C@@H]2C(=O)CO (stereo in doubt; form 2) [CORTICOSTERONE] | 13.2 nM |
| CC(=O)[C@@]1(O)CC[C@H]2[C@@H]3CCC4=CC(=O)CC[C@]4(C)[C@H]3CC[C@@]21C [HYDROXYPROGESTERONE] | 18.2 nM |
| C[C@]12CC[C@H]3[C@@H](CCC4=CC(=O)CC[C@@]43C)[C@@H]1CC[C@@H]2O [TESTOSTERONE] | 191 nM |
| C[C@@H]1C[C@@]2(C)C(=CC1=O)CC[C@H]1[C@@H]3CC[C@](O)(C(=O)CO)[C@@]3(C)C[C@H](O)[C@@]12F | 1580 nM |
